This is an account of results in patent US8513462B2, “Pesticides and uses thereof” (Dow AgroSciences LLC, priority 2007, dated 2013).

For experiment [1], the system named is green peach aphid (Myzus persicae). Description: Insecticidal test for green peach aphid in foliar spray assay. It counts as in vivo. The note with it: 72 h, foliar spray on cabbage, Corrected % Control (Abbott) after three days, read-out: Rating against green peach aphid on cabbage (foliar spray). The protocol:
Squash seedlings with fully expanded cotyledon leaves were trimmed to one cotyledon per plant and infested with cotton aphid (wingless adults and nymphs) 1 day prior to chemical application. Each plant was examined before chemical application to ensure uniform infestation (ca. 30-70 aphids per plant). Compounds (2 mg) were dissolved in 2 ml of acetone:methanol (1:1) solvent, forming stock solutions of 1000 ppm. The stock solutions were diluted 5× with 0.025% Tween 20 in H2O to obtain a solution at 200 ppm. A hand-held Devilbiss aspirator type sprayer was used to apply the spray solutions until runoff to both sides of the squash cotyledon leaves. Four plants (4 replications) were used for each compound. Reference plants (solvent check) were sprayed with the diluent only. Treated plants were held in a holding room for 3 days at approximately 23° C. and 40% RH before the number of live aphids on each plant was recorded. Insecticidal activity was measured by Corrected % Control using Abbott's correction formula and presented in Table 1-Activity: Corrected % Control=100*(X−Y)/X • where X=No. of live aphids on solvent check plants • Y=No. of live aphids on treated plants Results are shown in Table 7. Insecticidal Test for Green Peach Aphid (Myzus persicae) in Foliar Spray Assay Cabbage seedlings grown in 3-inch pots, with 2-3 small (3-5 cm) true leaves, were used as test substrate. The seedlings were infested with 20-50 green peach aphids (wingless adult and nymph) 1-2 days prior to chemical application. Four seedlings were used for each treatment. Compounds (2 mg) were dissolved in 2 ml of acetone:methanol (1:1) solvent, forming stock solutions of 1000 ppm. The stock solutions were diluted 5× with 0.025% Tween 20 in H2O to obtain a solution at 200 ppm. A hand-held Devilbiss aspirator sprayer was used for spraying a solution to both sides of cabbage leaves until runoff. Reference plants (solvent check) were sprayed with the diluent only. Treated plants were held in a holding room for three days at approximately 23° C. and 40% RH prior to grading. Evaluation was conducted by counting the number of live aphids per plant under a microscope. Insecticidal activity was measured by using Abbott's correction formula: Corrected % Control=100*(X−Y)/X • where X=No. of live aphids on solvent check plants • Y=No. of live aphids on treated plants

The subject of experiment [2] is cotton aphid (Aphis gossypii). In words: Insecticidal test for cotton aphid in foliar spray assay. Format: in vivo. The settings on record: 72 h, foliar spray on squash, Corrected % Control (Abbott) after 3 days, read-out: Rating against cotton aphid on squash (foliar spray). The protocol:
The compounds identified in the foregoing examples were tested against cotton aphid using procedures described hereinafter. Insecticidal Test for Cotton Aphid (Aphis gossypii) in Foliar Spray Assay Squash seedlings with fully expanded cotyledon leaves were trimmed to one cotyledon per plant and infested with cotton aphid (wingless adults and nymphs) 1 day prior to chemical application. Each plant was examined before chemical application to ensure uniform infestation (ca. 30-70 aphids per plant). Compounds (2 mg) were dissolved in 2 ml of acetone:methanol (1:1) solvent, forming stock solutions of 1000 ppm. The stock solutions were diluted 5× with 0.025% Tween 20 in H2O to obtain a solution at 200 ppm. A hand-held Devilbiss aspirator type sprayer was used to apply the spray solutions until runoff to both sides of the squash cotyledon leaves. Four plants (4 replications) were used for each compound. Reference plants (solvent check) were sprayed with the diluent only. Treated plants were held in a holding room for 3 days at approximately 23° C. and 40% RH before the number of live aphids on each plant was recorded. Insecticidal activity was measured by Corrected % Control using Abbott's correction formula and presented in Table 1-Activity: Corrected % Control=100*(X−Y)/X • where X=No. of live aphids on solvent check plants • Y=No. of live aphids on treated plants Results are shown in Table 7. Insecticidal Test for Green Peach Aphid (Myzus persicae) in Foliar Spray Assay

Take `CC(c1ccc(C(F)(F)F)nc1)S(C)(=O)=Nc1cccc[n+]1[O-]` (stereo not shown) [Compound 24, 3-[1-ethyl(N-(1-oxy-pyridin-2-e)-sulfoximinyl)(methyl)]-6-trifluoromethylpyridine]: the figures for the pest or weed control at 200 ppm in experiment [1] and in experiment [2] were < 80% and 80 to 100%, respectively.

On to `CC(c1ccc(C(F)(F)F)nc1)S(C)(=O)=Nc1nc(Br)cs1` (stereo not shown) [Compound 13, 5-{1-[methyl(4-bromo-1,3-thiazol-2-yl)sulfonimidoyl]ethyl}-2-(trifluoromethyl)pyridine], for which the figures for the pest or weed control at 200 ppm in experiment [1] and in experiment [2] were < 80% and 80 to 100%, respectively.

As for `CC(c1ccc(C(F)(F)F)nc1)S(C)(=O)=Nc1ccc([N+](=O)[O-])cn1` (stereo not shown) [Compound 7], the pest or weed control at 200 ppm in experiment [1] and in experiment [2] was 80 to 100% each time.

On to `CC(c1ccc(C(F)(F)F)nc1)S(C)(=O)=Nc1ccncc1` (stereo not shown) [Compound 8], for which the pest or weed control at 200 ppm in experiment [1] and in experiment [2] was < 80% each time.

For the compound `CC(c1ccc(C(F)(F)F)nc1)S(C)(=O)=Nc1ccc(F)cn1` (stereo not shown) [Compound 1, 3-[1-ethyl(N-(2-(5-fluoro)pyridine)-sulfoximinyl)(methyl)]-6-trifluoromethylpyridine], the pest or weed control at 200 ppm in experiment [1] and in experiment [2] was 80 to 100% in each case.
